Measurements published in PubChem BioAssay AID242 (DTP/NCI, 2004).
“And” between values parts separate entries of the source, which are not always exact repeats. Equal entries are not always repeated. Inconclusive results and toxic doses are left out.

Test system: BDF1 mice, Lymphoma 8 ip, survival T/C
Assay: NCI In Vivo Anticancer Drug Screen. Data for tumor model Lymphoma 8 (intraperitoneal) in B6D2F1 (BDF1) mice
Details: higher = longer survival
Procedure: The antitumor activity of compounds was measured in mice bearing transplantable tumors. Survival or tumor size were measured and the results are expressed as the measurement made in the treated group (T) divided by the measurement made in the vehicle treated control group (C). The tumor model used in this assay is Lymphoma 8 (intraperitoneal) in B6D2F1 (BDF1) mice

[1] = endpoint: survival time, mean or median, dose: 5.0 mg/kg/injection, schedule: Q01DX010 (ip), vehicle: saline
[2] = endpoint: survival time, mean or median, dose: 20.0 mg/kg/injection, schedule: Q01DX010 (ip), vehicle: saline
[3] = endpoint: survival time, mean or median, dose: 10.0 mg/kg/injection, schedule: Q01DX010 (ip), vehicle: saline

CN(C)c1nc(N(C)C)nc(N(C)C)n1
T/C (endpoint: survival time, mean or median, dose: 18.8 mg/kg/injection, schedule: Q01DX010 (ip), vehicle: saline): 104 % of control and 122 % of control
T/C (endpoint: survival time, mean or median, dose: 37.5 mg/kg/injection, schedule: Q01DX010 (ip), vehicle: saline): 95 % of control and 113 % of control
T/C (endpoint: survival time, mean or median, dose: 75.0 mg/kg/injection, schedule: Q01DX010 (ip), vehicle: saline): 100 % of control
T/C (endpoint: survival time, mean or median, dose: 150.0 mg/kg/injection, schedule: Q01DX010 (ip), vehicle: saline): 100 % of control

CC(=O)NC1=C(N2CC2)C(=O)C(NC(C)=O)=C(N2CC2)C1=O
T/C (endpoint: survival time, mean or median, dose: 0.5 mg/kg/injection, schedule: Q01DX015 (ip), vehicle: carboxymethylcellulose (CMC)): 174 % of control
T/C (endpoint: survival time, mean or median, dose: 1.0 mg/kg/injection, schedule: Q01DX015 (ip), vehicle: carboxymethylcellulose (CMC)): 150 % of control

C1CN1c1nc(N2CC2)nc(N2CC2)n1
T/C (endpoint: survival time, mean or median, dose: 0.13 mg/kg/injection, schedule: Q01DX010 (ip), vehicle: saline): 91 % of control and 100 % of control
T/C (endpoint: survival time, mean or median, dose: 0.25 mg/kg/injection, schedule: Q01DX010 (ip), vehicle: saline): 100 % of control and 104 % of control
T/C (endpoint: survival time, mean or median, dose: 0.5 mg/kg/injection, schedule: Q01DX010 (ip), vehicle: saline): 166 % of control
T/C (endpoint: survival time, mean or median, dose: 1.0 mg/kg/injection, schedule: Q01DX010 (ip), vehicle: saline): 87 % of control

CN(N=O)C(N)=O
T/C [1]: 114 % of control
T/C [2]: 110 % of control

Nc1nc(=S)c2[nH]cnc2[nH]1
T/C (endpoint: survival time, mean or median, dose: 1.25 mg/kg/injection, schedule: Q01DX010 (ip), vehicle: other): 120 % of control
T/C (endpoint: survival time, mean or median, dose: 5.0 mg/kg/injection, schedule: Q01DX010 (ip), vehicle: other): 115 % of control
T/C (endpoint: survival time, mean or median, dose: 10.0 mg/kg/injection, schedule: Q01DX010 (ip), vehicle: other): 110 % of control

CN(C)c1ccc(/C=C/c2ccnc3ccccc23)cc1
T/C [1]: 104 % of control and 118 % of control
T/C [3]: 86 % of control and 109 % of control
T/C [2]: 86 % of control and 104 % of control
T/C (endpoint: survival time, mean or median, dose: 40.0 mg/kg/injection, schedule: Q01DX010 (ip), vehicle: saline): 95 % of control and 100 % of control

CN(C)C(=S)N=Nc1c(O)[nH]c2ccccc12
T/C (endpoint: survival time, mean or median, dose: 25.0 mg/kg/injection, schedule: Q01DX015 (ip), vehicle: carboxymethylcellulose (CMC)): 124 % of control
T/C (endpoint: survival time, mean or median, dose: 100.0 mg/kg/injection, schedule: Q01DX015 (ip), vehicle: carboxymethylcellulose (CMC)): 104 % of control

S=P(N1CCOCC1)(N1CC1)N1CC1
T/C (endpoint: survival time, mean or median, dose: 2.5 mg/kg/injection, schedule: Q01DX010 (ip), vehicle: saline): 100 % of control and 113 % of control
T/C [1]: 104 % of control and 109 % of control
T/C [3]: 113 % of control
T/C [2]: 86 % of control and 122 % of control

N[C@H](C(=O)O)[C@@H]1CC(Cl)=NO1
T/C (endpoint: median survival time, dose: 0.38 mg/kg/injection, schedule: Q01DX009 (ip), vehicle: saline): 92 % of control
T/C (endpoint: median survival time, dose: 0.75 mg/kg/injection, schedule: Q01DX009 (ip), vehicle: saline): 78 % of control
T/C (endpoint: median survival time, dose: 1.5 mg/kg/injection, schedule: Q01DX009 (ip), vehicle: saline): 69 % of control
T/C (endpoint: median survival time, dose: 3.0 mg/kg/injection, schedule: Q01DX009 (ip), vehicle: saline): 74 % of control

CCOC(N)=O
T/C (endpoint: survival time, mean or median, dose: 125.0 mg/kg/injection, schedule: Q01DX010 (ip), vehicle: saline): 105 % of control
T/C (endpoint: survival time, mean or median, dose: 250.0 mg/kg/injection, schedule: Q01DX010 (ip), vehicle: saline): 100 % of control
T/C (endpoint: survival time, mean or median, dose: 500.0 mg/kg/injection, schedule: Q01DX010 (ip), vehicle: saline): 100 % of control

O=c1[nH]cc(F)c(=O)[nH]1
T/C (endpoint: median survival time, dose: 28.8 mg/kg/injection, schedule: Q04DX003 (ip), vehicle: saline): 155 % of control
T/C (endpoint: median survival time, dose: 48.0 mg/kg/injection, schedule: Q04DX003 (ip), vehicle: saline): 277 % of control
T/C (endpoint: median survival time, dose: 80.0 mg/kg/injection, schedule: Q04DX003 (ip), vehicle: saline): 331 % of control
T/C [1]: 108 % of control and 114 % of control
T/C [2]: 153 % of control and 158 % of control

Nc1ccc(OC(=O)Oc2ccc(N)cc2)cc1
T/C (endpoint: survival time, mean or median, dose: 25.0 mg/kg/injection, schedule: Q01DX015 (ip), vehicle: saline): 105 % of control
T/C (endpoint: survival time, mean or median, dose: 50.0 mg/kg/injection, schedule: Q01DX015 (ip), vehicle: saline): 91 % of control
T/C (endpoint: survival time, mean or median, dose: 100.0 mg/kg/injection, schedule: Q01DX015 (ip), vehicle: saline): 111 % of control
T/C (endpoint: survival time, mean or median, dose: 200.0 mg/kg/injection, schedule: Q01DX015 (ip), vehicle: saline): 106 % of control

CS(=O)(=O)OCCC(=O)N1CCN(C(=O)CCOS(C)(=O)=O)CC1
T/C (endpoint: survival time, mean or median, dose: 12.5 mg/kg/injection, schedule: Q01DX010 (ip), vehicle: saline): 116 % of control
T/C (endpoint: survival time, mean or median, dose: 25.0 mg/kg/injection, schedule: Q01DX010 (ip), vehicle: saline): 123 % of control
T/C (endpoint: survival time, mean or median, dose: 50.0 mg/kg/injection, schedule: Q01DX010 (ip), vehicle: saline): 156 % of control
T/C (endpoint: survival time, mean or median, dose: 100.0 mg/kg/injection, schedule: Q01DX010 (ip), vehicle: saline): 203 % of control

C=CCSc1nc(N)nc2nc[nH]c12
T/C (endpoint: survival time, mean or median, dose: 16.0 mg/kg/injection, schedule: Q01DX015 (ip), vehicle: other): 101 % of control
T/C (endpoint: survival time, mean or median, dose: 31.0 mg/kg/injection, schedule: Q01DX015 (ip), vehicle: other): 100 % of control
T/C (endpoint: survival time, mean or median, dose: 62.5 mg/kg/injection, schedule: Q01DX015 (ip), vehicle: other): 90 % of control
